According to patent publication US5164385A, “Azetidine derivatives and hypotensive compositions thereof” (John Wyeth & Brother, Ltd., priority 1990, dated 1992):

Experiments:
[1] = test system: arterial blood pressure and heart rate; test: Hypotensive activity in anaesthetised normotensive rats; format: in vivo, rat (Sprague-Dawley); conditions: iv
Experimental: The compounds are tested for hypotensive activity in anaesthetised normotensive rats. In this procedure adult male Sprague-Dawley rats weighing 200-400 g are anaesthetised with 70 mg/kg pentobarbitone sodium, i.p. The fermoral (or jugular) vein, the femoral (or carotid) artery, and the trachea are cannulated and the vascular canulae then flushed with 0.3 ml of heparinised saline (125 U/ml). The arterial blood pressure and heart rate are continuously monitored. Top-up doses of 6 or 12 mg/kg anaesthetic are administered as required until a stable base-line is obtained. A cumulative dose-response curve to the test compound is then obtained, using a 5 min dose interval. Each dose is administered in a volume of […] and flushed in with 0.5 ml saline. Systolic, diastolic, and mean arterial blood pressure and heart rate are then calculated 5 min after each dose and compared with the pre-dose value. Mean results from six rats are analysed using analysis of variants. The ED20 (ie the dose giving a 20% fall in mean arterial blood pressure) is also calculated. […] The minimum effective dose of this compound which produced a significant decrease in blood pressure was 1 μg/kg iv, and the ED20 was 5.2 μg/kg iv.

[2] = target: T1, 5-HT1 receptor (Rattus norvegicus, UniProt P19327); test: 5-HT1 receptor agonist activity in vivo: induction of the 5-HT behavioural syndrome in rats; conditions: iv, sequential up-down method
T1 construct: measuring their ability to induce the 5-HT behavioural syndrome in rats; from tissue; host or cells: living rats (in vivo, intravenous dosing); endogenous receptor of the central nervous system
T1 sequence (P19327 1-422): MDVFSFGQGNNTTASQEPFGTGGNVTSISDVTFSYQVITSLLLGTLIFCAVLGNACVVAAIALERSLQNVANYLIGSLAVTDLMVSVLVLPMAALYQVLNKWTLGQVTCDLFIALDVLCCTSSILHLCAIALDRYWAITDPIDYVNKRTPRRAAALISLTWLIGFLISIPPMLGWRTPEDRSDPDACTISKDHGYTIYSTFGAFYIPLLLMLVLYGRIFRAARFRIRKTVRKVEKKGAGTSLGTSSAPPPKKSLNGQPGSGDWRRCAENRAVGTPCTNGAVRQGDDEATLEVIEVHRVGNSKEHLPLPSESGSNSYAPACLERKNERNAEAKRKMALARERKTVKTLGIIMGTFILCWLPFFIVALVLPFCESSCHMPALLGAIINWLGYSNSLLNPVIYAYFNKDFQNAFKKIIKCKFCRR
Experimental: The compounds are evaluated for 5-HT1 receptor agonist activity in vivo by measuring their ability to induce the 5-HT behavioural syndrome in rats (A. R. Green, Neuropharmacology, 1984, 23 1521). Compounds which induce 5-HT-related behaviours are adjudged to be `active`, and a sequential up-down method (A. W. Kimball, W. T. Burnett, and D. G. Doherty, Radiation Research, 1957, 7, 1) is used to determine ED50 values for the compounds.

[3] = anaesthetised normotensive male Sprague-Dawley rats, cumulative dose-response, 5 min after each dose

Q: Which ED20 ([1]; Rattus norvegicus, 5 min, anaesthetised normotensive rats, read-out: ED20 (dose giving a 20% fall in mean arterial blood pressure)) does the source give for `Oc1cccc2c1CC(N1CCC1)CC2` (centres unmarked) [Example 3, 7-(1-Azetidinyl)-5,6,7,8-tetrahydro-1-naphthalenol] here?
A: Its ED20 is 5.2 µg/kg.

Q: What about the minimal effective dose ([1]; Rattus norvegicus, 5 min, anaesthetised normotensive rats, read-out: minimum effective dose which produced a significant decrease in blood pressure) of the same compound?
A: The minimal effective dose was 1 µg/kg.

Q: And the “effect on blood pressure” value [1, 3]?
A: Its value is “dose-related falls”.

Q: And the “effect on heart rate” value [1, 3]?
A: Its value is “dose-related falls”.

Q: What about the ED50 [2] of the same compound?
A: Its ED50 is 70 µg/kg.
